ChEMBL document CHEMBL3885861, “Open TG-GATES”

Species: Rattus norvegicus
Experiment: Open TG-GATES - Regimen: Single
Type: toxicity, organism-based, Sprague-Dawley
Parameters: regimen Single, gender Male, age 6 weeks
Conditions: in vivo, ip, 0 mg/kg, route intraperitoneal injection, dose level Control; for APTT / Bas / Eos / Fbg / Hb / Ht / Lym / MCH / MCHC / MCV / Mono / Neu / PT / Plat / RBC / Ret / WBC: tissue Blood; for KIDNEY_L / KIDNEY_R / KIDNEY_TOTAL: tissue Kidney; for LIVER: tissue Liver; for A/G / ALP / ALT / AST / BUN / CRE / Ca / Cl / DBIL / GLC / IP / K / LDH / Na / PL / RALB / TBIL / TC / TG / TP / gamma-GTP: tissue Plasma

SMILES: CC(C)=CC(=O)C=C(C)C [PHORONE]
- TERMINAL_BW (3 h): 224.3 g
- APTT (3 h): 17.2 s
- Bas (3 h): 0%
- Eos (3 h): 1%
- Fbg (3 h): 227.4 mg/dL
- Hb (3 h): 13.5 g/dL
- Ht (3 h): 40.2%
- Lym (3 h): 71%
- MCH (3 h): 22.1 pg
- MCHC (3 h): 33.5%
- MCV (3 h): 65.9 fL
- Mono (3 h): 8.2%
- Neu (3 h): 19.8%
- PT (3 h): 12.2 s
- Plat (3 h): 114.4 x10_4/uL
- RBC (3 h): 609.2 x10_4/ul
- Ret (3 h): 9.2%
- WBC (3 h): 97 x10_2/uL
- KIDNEY_L (3 h): 1 g
- KIDNEY_R (3 h): 1 g
- KIDNEY_TOTAL (3 h): 2 g
- LIVER (3 h): 10.7 g
- A/G (3 h): 1.9
- ALP (3 h): 863.8 IU/L
- ALT (3 h): 35.2 IU/L
- AST (3 h): 73.4 IU/L
- BUN (3 h): 13.6 mg/dL
- CRE (3 h): 0.5 mg/dL
- Ca (3 h): 11.1 mg/dL
- Cl (3 h): 106.2 meq/L
- DBIL (3 h): 0.02 mg/dL
- GLC (3 h): 195 mg/dL
- IP (3 h): 9.9 mg/dL
- K (3 h): 5.1 meq/L
- LDH (3 h): 86 IU/L
- Na (3 h): 139.6 meq/L
- PL (3 h): 142.8 mg/dL
- RALB (3 h): 3.6 g/dL
- TBIL (3 h): 0.4 mg/dL
- TC (3 h): 75.8 mg/dL
- TG (3 h): 99 mg/dL
- TP (3 h): 5.6 g/dL
- gamma-GTP (3 h): 1.4 IU/L
- TERMINAL_BW (6 h): 219.5 g
- APTT (6 h): 17.4 s
- Bas (6 h): 0%
- Eos (6 h): 0.6%
- Fbg (6 h): 223.8 mg/dL
- Hb (6 h): 13.2 g/dL
- Ht (6 h): 39.7%
- Lym (6 h): 74.6%
- MCH (6 h): 21.2 pg
- MCHC (6 h): 33.2%
- MCV (6 h): 63.9 fL
- Mono (6 h): 4.4%
- Neu (6 h): 20.4%
- PT (6 h): 12.3 s
- Plat (6 h): 118.6 x10_4/uL
- RBC (6 h): 620.2 x10_4/ul
- Ret (6 h): 9.1%
- WBC (6 h): 102.1 x10_2/uL
- KIDNEY_L (6 h): 0.9 g
- KIDNEY_R (6 h): 0.9 g
- KIDNEY_TOTAL (6 h): 1.9 g
- LIVER (6 h): 9.7 g
- A/G (6 h): 2
- ALP (6 h): 700.4 IU/L
- ALT (6 h): 34.8 IU/L
- AST (6 h): 72.8 IU/L
- BUN (6 h): 12.6 mg/dL
- CRE (6 h): 0.5 mg/dL
- Ca (6 h): 10.6 mg/dL
- Cl (6 h): 105.2 meq/L
- DBIL (6 h): 0.024 mg/dL
- GLC (6 h): 210.4 mg/dL
- IP (6 h): 10.2 mg/dL
- K (6 h): 4.7 meq/L
- LDH (6 h): 65 IU/L
- Na (6 h): 139 meq/L
- PL (6 h): 137 mg/dL
- RALB (6 h): 3.5 g/dL
- TBIL (6 h): 0.4 mg/dL
- TC (6 h): 77.8 mg/dL
- TG (6 h): 50 mg/dL
- TP (6 h): 5.2 g/dL
- gamma-GTP (6 h): 1.2 IU/L
- TERMINAL_BW (9 h): 217.4 g
- APTT (9 h): 17.2 s
- Bas (9 h): 0%
- Eos (9 h): 0.8%
- Fbg (9 h): 246.8 mg/dL
- Hb (9 h): 13.1 g/dL
- Ht (9 h): 39.7%
- Lym (9 h): 70%
- MCH (9 h): 21.7 pg
- MCHC (9 h): 33.1%
- MCV (9 h): 65.5 fL
- Mono (9 h): 4.6%
- Neu (9 h): 25.2%
- PT (9 h): 11.9 s
- Plat (9 h): 112.4 x10_4/uL
- RBC (9 h): 606.8 x10_4/ul
- Ret (9 h): 9.2%
- WBC (9 h): 108.4 x10_2/uL
- KIDNEY_L (9 h): 0.9 g
- KIDNEY_R (9 h): 1 g
- KIDNEY_TOTAL (9 h): 1.9 g
- LIVER (9 h): 9 g
- A/G (9 h): 2.1
- ALP (9 h): 720.6 IU/L
- ALT (9 h): 29.8 IU/L
- AST (9 h): 60.6 IU/L
- BUN (9 h): 11.4 mg/dL
- CRE (9 h): 0.5 mg/dL
- Ca (9 h): 10.7 mg/dL
- Cl (9 h): 105.8 meq/L
- DBIL (9 h): 0.066 mg/dL
- GLC (9 h): 200.6 mg/dL
- IP (9 h): 10.6 mg/dL
- K (9 h): 4.5 meq/L
- LDH (9 h): 74.8 IU/L
- Na (9 h): 138.8 meq/L
- PL (9 h): 138.6 mg/dL
- RALB (9 h): 3.8 g/dL
- TBIL (9 h): 0.4 mg/dL
- TC (9 h): 79.8 mg/dL
- TG (9 h): 42.8 mg/dL
- TP (9 h): 5.6 g/dL
- gamma-GTP (9 h): 1.4 IU/L
- TERMINAL_BW (24 h): 237.9 g
- APTT (24 h): 17.4 s
- Bas (24 h): 0%
- Eos (24 h): 1%
- Fbg (24 h): 276.4 mg/dL
- Hb (24 h): 12.9 g/dL
- Ht (24 h): 38.6%
- Lym (24 h): 73.6%
- MCH (24 h): 21.5 pg
- MCHC (24 h): 33.3%
- MCV (24 h): 64.8 fL
- Mono (24 h): 4.6%
- Neu (24 h): 20.6%
- PT (24 h): 11.7 s
- Plat (24 h): 118.3 x10_4/uL
- RBC (24 h): 596.2 x10_4/ul
- Ret (24 h): 8.4%
- WBC (24 h): 101.3 x10_2/uL
- KIDNEY_L (24 h): 1 g
- KIDNEY_R (24 h): 1.1 g
- KIDNEY_TOTAL (24 h): 2.1 g
- LIVER (24 h): 11.7 g
- A/G (24 h): 1.9
- ALP (24 h): 856.2 IU/L
- ALT (24 h): 28.8 IU/L
- AST (24 h): 55.6 IU/L
- BUN (24 h): 16.4 mg/dL
- CRE (24 h): 0.5 mg/dL
- Ca (24 h): 10.9 mg/dL
- Cl (24 h): 103.2 meq/L
- DBIL (24 h): 0.026 mg/dL
- GLC (24 h): 195.4 mg/dL
- IP (24 h): 8.7 mg/dL
- K (24 h): 4.9 meq/L
- LDH (24 h): 66.2 IU/L
- Na (24 h): 138.4 meq/L
- PL (24 h): 140.6 mg/dL
- RALB (24 h): 3.6 g/dL
- TBIL (24 h): 0.4 mg/dL
- TC (24 h): 78.4 mg/dL
- TG (24 h): 80.8 mg/dL
- TP (24 h): 5.6 g/dL
- gamma-GTP (24 h): 1.6 IU/L
